Results as given in a melting point compilation (Tetko et al.).

Structure (SMILES) | melting point [°C]
NCS(=O)(=O)O | 180 to 185
CCCCCCCCCCCCCCCCCCCO | 63.3
OCc1cc(Cl)ccc1Cl | 78
O=C(/C=C/C(=O)c1ccccc1)c1ccccc1 | 110 to 111
COc1ccc(OC)c(C(=O)CBr)c1 | 83 to 88
Cc1cc(O)c([N+](=O)[O-])c(=O)[nH]1 | 293 to 296
Cc1cc2ncc(C(=O)O)c(C)n2n1 | 250 to 251
O=C1OC(=O)C2=C1CCCC2 | 74
Cc1cc(I)c(C)cc1I | 103 to 104
CC1(C)CCC2(C)CCC3(C)C(=CCC4C5(C)CCC(O)C(C)(C)C5CCC43C)C2C1 (stereo not drawn) | 197
O=C(O)c1c(Cl)ccc2cc(Cl)cnc12 | 274
Cc1cc(C)c(C)c(I)c1C | 79
COc1cc(OC)c(Cl)cc1N | 89 to 92
O=CC=Cc1ccc([N+](=O)[O-])o1 | 118
CC1=CC(=O)C(C(=O)OC2CC(C)CCC2C(C)C)C(C)C1C(=O)OC1CC(C)CCC1C(C)C (stereo not drawn) | 185 to 186
NC(=O)c1cc(Cl)cc(Cl)c1 | 160 to 162
Cc1ccccc1NC(=N)NC(=N)N | 144
O=C(O)C(Br)C(Br)c1cccc(C(Br)C(Br)C(=O)O)c1 (stereo not drawn) | 225
O=S(=O)(Cl)c1cc(Cl)c(Cl)s1 | 56
Cc1nc(Cl)ccc1I | 32
CCCCCCS(=O)(=O)O | 16.1
Cn1cnc(N)c2ncnc1-2 | 300
CC(=O)OCC(=O)C1(OC(C)=O)CCC2(C)C(CCC3C4CCC(=O)C4(C)CCC32)C1 (stereo not drawn) | 141
O=C(c1ccccn1)c1ccccn1 | 53 to 55
C[C@H](O)[C@@H](N)C(=O)O | 274
COC(=O)c1c(Cl)nn(C)c1S(=O)(=O)NC(=O)Nc1nc(OC)cc(OC)n1 | 176

Structure (SMILES) | melting point [°C]
Cc1ccccc1-n1c(C)nc2ccccc2c1=O | 120
O=C(O)CCCOc1ccccc1 | 63
Oc1cc(C(F)(F)F)nc(S)n1 | 251
CC(=O)c1cccc(N=C=O)c1 | 33 to 34
CCCCCCCCCCCCC1CCC1=O (stereo not drawn) | 28 to 31
O=C(O)CSCC(=O)NC1CCSC1=O (stereo not drawn) | 156
Cc1nc2ccccn2c1C=O | 117 to 118
COc1ccc(CCN2CC(C(=O)O)CC2=O)cc1OC (stereo not drawn) | 127 to 131
COc1cc(O)cc(OC)c1 | 46
O=[N+]([O-])c1cc(F)cc(F)c1 | 17
CCCC(CC)c1ccccc1 (stereo not drawn) | -55.4
CCC(C)(C)OC(N)=O | 86
COC(=O)c1ccc(C(N)=NO)cc1 | 167 to 168
O=C(Cl)c1ccc(Cl)nc1 | 50
CC1=NNC(=O)CC1 | 79 to 83
Nc1nncs1 | 191
O=C(Br)c1ccccc1 | -24
CCc1cc(CC)cc(CC)c1 | -66.5
O=C(O)c1nc(Cl)c(Cl)c(Cl)c1Cl | 172
CCO[Si](CCCNC(=O)c1ccc([N+](=O)[O-])cc1)(OCC)OCC | 55
NNc1ccc(F)cc1F | 65 to 67
NC(=S)CS(=O)(=O)c1ccc(Cl)cc1 | 188 to 192
FC(F)C(F)C(F)(F)F (stereo not drawn) | -156
CSC(Cl)=NS(=O)(=O)c1ccc(C)cc1 | 90 to 91
CC(C)(C)CC(=O)C=C1Nc2ccccc2NC1=CC(=O)CC(C)(C)C | 220 to 222
C=C(C)C=C(C)C | -114

Structure (SMILES) | melting point [°C]
NNc1nccc(C(F)(F)F)n1 | 100 to 101
Nc1cc(S(=O)(=O)F)ccc1Cl | 64 to 68
CCCCc1ccc(/C=N/c2ccc(C(C)=O)cc2)cc1 | 83 to 93
CCOC(=O)c1sc(SC)c2c1CCCC2=O | 108 to 111
C=CCC(C(=O)NC(N)=O)C(C)C (stereo not drawn) | 194
C#CCCCC#C | -85
O=CC(F)(F)C(F)(F)C(F)(F)C(F)(F)C(F)(F)C(F)(F)C(F)(F)C(F)(F)Cl | 36 to 38
CN(C)CCN(C)CCN(C)C | 18
CCOC(=O)c1c(C=O)c(C)n(C2CC2)c1C | 75 to 80
O=C(C=Cc1ccccc1)NCCO | 101
Cc1cc(=O)[nH]cc1Br | 196 to 201
N#Cc1ccnc(I)c1 | 79
CC(=O)N1CCSC1C(=O)O (stereo not drawn) | 114 to 116
Fc1c(F)c(Br)c(F)c(F)c1Br | 78 to 81
O=C(O)COc1nc(Cl)c(Cl)cc1Cl | 150
C/C(=N\NC(N)=O)C1CC2(C)CCC1C2(C)C (stereo not drawn) | 236
CS(=O)(=O)CCCN=C=S | 47.5
O=C(O)c1ccc(O)c(O)c1 | 201
O=C(O)CNc1ccccc1C(=O)O | 218
CCc1cc(Cc2cc(CC)cc(C(C)(C)C)c2O)c(O)c(C(C)(C)C)c1 | 120
NNC(=O)c1cc(OCC(F)(F)F)ccc1OCC(F)(F)F | 86 to 88
CN1CCN(Cc2ccccc2I)CC1 | 37 to 38
COC(=O)c1ccc(CC(C#N)(Cc2ccc(C(=O)OC)cc2)c2ccc(CC(C)C)cc2)cc1 | 115
ON=C1CCCc2nnc3c(c21)CCCC3 | 269 to 271
Cc1nc([N+](=O)[O-])cn1C(C)C | 86
CC(C)Oc1cccc(NC(=O)c2ccccc2C(F)(F)F)c1 | 105

Next, values leading:

melting point [°C] | Structure (SMILES)
159 to 160 | O=C1OC(c2ccccc2)=NC1=Cc1ccc(-c2ccccc2Br)o1
39 to 41.5 | CNCc1ccc(-c2ccccc2)nc1
57 to 59 | Nc1ccc(C2SCCS2)cc1
51 | Cc1onc(-c2c(F)cccc2Cl)c1C(=O)Cl
192 to 193 | CC1C/C(=C\c2ccc([N+](=O)[O-])cc2)C(=O)/C(=C/c2ccc([N+](=O)[O-])cc2)C1 (stereo not drawn)
131 | CCCC(=O)OCN1C(=O)NC(c2ccccc2)(c2ccccc2)C1=O
100 | CCc1c(C)[nH]c2ccc(N(C)C)cc12
169 to 174 | Cc1ccc2occ(C=O)c(=O)c2c1
115 | O=Cc1cccc2cnccc12
186 | O=[N+]([O-])c1ccc(/C=C/c2ccccc2O)c([N+](=O)[O-])c1
193 | O=C1c2cccc(O)c2C(=O)c2c(O)cccc21
57 to 59 | O=Cc1ccc(Cn2cccn2)cc1
197 | N#CC1=C(N)Oc2[nH]nc(C(F)(F)F)c2C1c1ccc(O)cc1 (stereo not drawn)
80 to 84 | Clc1ccc(-c2cc[nH]n2)cc1
103 | CC(=O)CCc1oc2c([N+](=O)[O-])cccc2c1-c1ccc(C)o1
134 | N#CC(Cc1ccc([N+](=O)[O-])cc1)c1ccccc1 (stereo not drawn)
197 to 200 | O=C(O)C12CC3CC(C1)CC(c1ccc([N+](=O)[O-])cc1)(C3)C2
104 | N#Cc1ccnc2ccccc12
187 | CCC(c1ccc(O)cc1)C(CC)c1ccc(O)cc1 (stereo not drawn)
320 | O=P1(O)Oc2ccc3ccccc3c2-c2c(ccc3ccccc23)O1
204 | Cc1cccc(C(=O)N(NC(=O)c2ccccc2)C(C)(C)C)c1C
182 | CN(C)CCCC1(c2ccc(F)cc2)OCc2cc(C#N)ccc21 (stereo not drawn)
93.5 | c1cc2c(cc1OC1OCC3C(c4ccc5c(c4)OCO5)OCC13)OCO2 (stereo not drawn)
172 to 173 | Cc1cc(C)c(CC(=O)c2cc3ccccc3o2)c(C)c1
160 to 167 | OC12Cc3ccccc3C(O)(Cc3ccccc31)O2

melting point [°C] | Structure (SMILES)
98 | Cc1c(C)n(C(=O)c2ccccc2)c2ccccc12
186 | O=C1c2ccccc2C(=O)c2c(Br)cccc21
71 to 74 | O=C1OC(C2CCCCC2)Cc2ccccc21 (stereo not drawn)
204 | COc1cc(S(C)=O)ccc1-c1nc2ncccc2[nH]1 (stereo not drawn)
166 | COc1ccc(N2C(=O)C3ON=C(C(=O)c4ccccc4)C3C2=O)cc1 (stereo not drawn)
168 to 172 | c1ccc(-c2ccc(-c3nnc(-c4ccccc4)o3)cc2)cc1
146 to 148 | CSc1nc2cc(NCc3ccc4c(c3)OCO4)ccc2[nH]1
233 | Cc1nc(CC#N)sc1/N=N/c1ccc([N+](=O)[O-])cc1
197 to 201 | COc1ccc2[nH]c(C(=O)O)cc2c1
80.5 | CC(C)OC(=O)C(C)(C)Oc1ccc(C(=O)c2ccc(Cl)cc2)cc1
55 to 56 | O=C(CBr)c1cccc2c1OCCCO2
118 | O=C(O)c1ccccc1Cc1ccccc1
71.5 | Cc1ccc([N+](=O)[O-])c2ccccc12
144 | COc1c2ccoc2cc2oc(C)cc(=O)c12
161 | O=[N+]([O-])c1ccc2c3c(ccc(C(Cl)=Cc4ccccc4)c13)CC2
98 | CC(=O)OCC1OC(c2nn[nH]n2)C(N2C(=O)c3ccccc3C2=O)C(OC(C)=O)C1OC(C)=O (stereo not drawn)
108 | COC(=O)c1c(P(c2ccccc2)c2ccccc2)ccc2ccccc12
88 | OCCN(CCO)Cc1ccc(COc2ccccc2)cc1
97 to 98 | CC(C)(Oc1ccc(C(C)(C)C)cc1)C(=O)O
255 | Oc1cccc(O)c1Cc1c(O)cccc1O
172 | O=[N+]([O-])c1cc(C(O)Cc2ccc3ccccc3n2)ccc1C(O)Cc1ccc2ccccc2n1 (stereo not drawn)
148 to 150 | CSc1nc(N)c(C(=O)c2ccc(Cl)cc2)s1
96 | CC12CCC(C(COC(=O)c3ccccc3)C1=O)C2(C)C (stereo not drawn)
155 | NC(=O)C(CO)NC(=O)OCC1c2ccccc2-c2ccccc21 (stereo not drawn)
216 to 217 | O=C1C(=Cc2ccc(Cl)cc2)SC(=S)N1CNc1ccc([N+](=O)[O-])cc1
